# The source made the active and inactive calls. The rule behind the calls is not given here.
# Target: Chaperone protein DnaK (Escherichia coli (strain K12)) (UniProt P0A6Y8)
# Experiment: binders of DnaK substrate-binding domain, biophysical, NMR, chaperone (AID 1033)
# Details: Purified DnaK SBD, NMR ligand binding
# Sequence of Chaperone protein DnaK (Escherichia coli (strain K12)) (P0A6Y8 whole entry, looked up, the tested form may be a part): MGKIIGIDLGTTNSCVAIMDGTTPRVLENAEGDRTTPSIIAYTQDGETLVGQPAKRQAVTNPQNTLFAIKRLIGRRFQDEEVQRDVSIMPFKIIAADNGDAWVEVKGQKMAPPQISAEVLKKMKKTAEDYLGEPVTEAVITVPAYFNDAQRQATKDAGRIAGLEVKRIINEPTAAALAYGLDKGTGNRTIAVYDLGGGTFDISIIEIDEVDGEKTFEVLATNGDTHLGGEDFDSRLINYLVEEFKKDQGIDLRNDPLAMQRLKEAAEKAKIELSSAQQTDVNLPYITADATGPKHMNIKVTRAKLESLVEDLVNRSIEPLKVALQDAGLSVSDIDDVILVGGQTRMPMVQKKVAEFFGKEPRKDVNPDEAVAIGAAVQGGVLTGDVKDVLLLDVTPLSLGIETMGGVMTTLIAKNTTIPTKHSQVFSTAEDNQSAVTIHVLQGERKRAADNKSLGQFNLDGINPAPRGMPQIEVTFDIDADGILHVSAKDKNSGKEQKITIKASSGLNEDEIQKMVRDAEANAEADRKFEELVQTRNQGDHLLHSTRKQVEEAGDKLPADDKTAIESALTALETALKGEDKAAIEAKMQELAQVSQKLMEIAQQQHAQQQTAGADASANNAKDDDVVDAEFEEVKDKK
row,SMILES,Kd
1,Nc1ncnc(NCc2cccnc2)c1[N+](=O)[O-],> 4 mM (inactive)
2,O=C(O)c1csc2ccccc12,> 4 mM (inactive)
3,Cc1cc(=O)n2[nH]c(N)nc2n1,> 4 mM (inactive)
4,COc1cc(C/C=C/c2ccccc2)c(OC)cc1O,> 4 mM (inactive)
5,C=CCCCCCCCCCCCc1ccco1,> 4 mM (inactive)
6,Cc1nc(-c2cc(CO)no2)cs1,> 4 mM (inactive)
7,O=C1CSC(=Nc2ccccc2)N1,> 4 mM (inactive)
8,CC1(C)C(=O)C=C[C@@]2(C)C1CC(=O)[C@]1(C)C2CC[C@@]2(C)[C@H](c3ccoc3)OC(=O)[C@H]3O[C@]321 (stereo partly specified),> 4 mM (inactive)
9,NCC(N)C(=O)c1ccccc1 (stereo unspecified),> 4 mM (inactive)
10,N#CCSc1nnc2ccc3ccccc3n12,> 4 mM (inactive)
11,COC(=O)c1c(C)c2c(c(C)c1O)OC(=O)c1c(C)c(Cl)c(O)c(Cl)c1O2,> 4 mM (inactive)
12,COc1ccc(NC(=O)N2CCCCC2)cc1,> 4 mM (inactive)
13,OCc1cccc2c1OCO2,> 4 mM (inactive)
14,Cc1cc(NC(=O)c2cccc(S(C)(=O)=O)c2)no1,> 4 mM (inactive)
15,O=c1c2ccccc2oc2ccccc12,> 4 mM (inactive)
16,O=c1[nH]cnc2nc[nH]c12,> 4 mM (inactive)
17,COc1ccc(CN2CCC(O)CC2)c(O)c1,> 4 mM (inactive)
18,O=C(O)c1cc(=O)[nH]c2ccccc12,> 4 mM (inactive)
19,CC[C@]12CCCN3CCc4c(n(c5ccccc45)[C@](O)(C(=O)OC)C1)[C@@H]32,> 4 mM (inactive)
20,CN(C)c1ccc2c(=O)[nH][nH]c(=O)c2c1,> 4 mM (inactive)
21,OCc1ccccc1CN1CCOCC1,> 4 mM (inactive)

row,SMILES,Kd
1,C=C[C@@](C)(O)CCC1C(=C)CCC2[C@@](C)(CO)CCC[C@]12C (stereo partly specified),> 4 mM (inactive)
2,O=S(=O)(N1CCOCC1)n1nnc2ccccc21,> 4 mM (inactive)
3,NC(=O)C1CCN(C(=S)c2cccs2)CC1,> 4 mM (inactive)
4,CCc1ccccc1NC(=O)c1ccoc1C,> 4 mM (inactive)
5,C[C@@H]1CC[C@@]2(OC1)O[C@H]1CC3C4CC[C@H]5C[C@@H](O)CC[C@]5(C)C4CC[C@]3(C)[C@H]1[C@@H]2C (stereo partly specified),> 4 mM (inactive)
6,Nc1ccccc1C(=O)N1CCNC(=O)C1,> 4 mM (inactive)
7,COc1ccc(S(=O)(=O)N2CCOCC2)cc1C(C)C,> 4 mM (inactive)
8,O=C(O)c1ccnc2ccccc12,> 4 mM (inactive)
9,Nc1ccc(OCc2ccccc2)cc1,> 4 mM (inactive)
10,OCc1cc(-c2cccs2)on1,> 4 mM (inactive)
11,NC(=O)CN=Cc1c(O)[nH]c2ccccc12,> 4 mM (inactive)
12,C[C@@H](N)[C@@H](O)c1ccccc1,> 4 mM (inactive)
13,Cn1c(=O)[nH]c(=O)c2c1ncn2CCN1CCCCC1,> 4 mM (inactive)
14,c1cc2n(c1)CCNC2c1ccncc1 (stereo unspecified),> 4 mM (inactive)
15,CS(=O)(=O)N1CCN(C(=O)c2ccccc2F)CC1,> 4 mM (inactive)
16,CC(C)[C@@H]1CC[C@@H](C)CC1=O,> 4 mM (inactive)
17,CC(=O)NCC1(c2ccccc2)CCOCC1,> 4 mM (inactive)
18,Cc1cc(C(=O)NC2=NCCS2)cs1,> 4 mM (inactive)
19,COC(=O)C1CCN(c2ccc(Cl)nn2)CC1,> 4 mM (inactive)
20,NC(=O)C1(c2ccccc2)CCOCC1,> 4 mM (inactive)
21,CC(=O)c1cc2c(s1)SCC(=O)N2,> 4 mM (inactive)

row,SMILES,Kd
1,CC(=O)Oc1ccc(O)cc1,> 4 mM (inactive)
2,C=C1C([C@]2(C)C(CC(=O)OC)[C@@](C)(COC(C)=O)OC(=O)C[C@@H]2OC(C)=O)[C@@H](OC=O)[C@H](OC(=O)C(OC(C)=O)C(C)CC)[C@@]2(C)[C@H](c3ccoc3)CC(=O)C12O (stereo partly specified),> 4 mM (inactive)
3,S=C(c1ccc(N2CCOCC2)cc1)N1CCCCC1,> 4 mM (inactive)
4,C=C(C)[C@H]1CC=C(C(=O)O)CC1,> 4 mM (inactive)
5,CCn1cnc2sc(C(=O)O)c(C)c2c1=O,> 4 mM (inactive)
6,NCc1nnnn1-c1ccccc1,> 4 mM (inactive)
7,Cc1c(C(=O)Nc2ccncc2)oc2c1C(=O)CC(C)(C)C2,> 4 mM (inactive)
8,CSc1nnc(CN2CCSCC2)n1C,> 4 mM (inactive)
9,O=NN1C(=O)c2ccccc2C1=O,> 4 mM (inactive)
10,CC(=O)OC1CCC23C(=O)OC45CCC(C6=CC(=O)OC6)C4(C)CCC2C5CCC3(O)C1 (stereo unspecified),> 4 mM (inactive)
11,Cn1c([O-])c([N+](C)(C)C)c(=O)n(C)c1=O,> 4 mM (inactive)
12,Cn1ncc(N2CCOCC2)c(Cl)c1=O,> 4 mM (inactive)
13,N#Cc1cnn(-c2ccc(Cl)cc2)c1N,> 4 mM (inactive)
14,CCOc1ccccc1C(=O)NC1=NCCS1,> 4 mM (inactive)
15,C[C@@H]1CC[C@@]2(OC1)OC1CC3C4CC=C5C[C@@H](O)CC[C@]5(C)C4CC[C@]3(C)C1[C@@H]2C (stereo partly specified),> 4 mM (inactive)
16,Oc1cccc2[nH]ccc12,> 4 mM (inactive)
17,COC(=O)C1=CO[C@@H](O[C@@H]2O[C@H](CO)[C@@H](O)[C@H](O)[C@H]2O)[C@@H]2[C@@H](C)[C@@H](O)C[C@H]12,> 4 mM (inactive)
18,Nc1ncnc2c1ncn2C1O[C@H](COP(=O)(O)O)[C@@H](O)[C@H]1O (stereo partly specified),> 4 mM (inactive)
19,O=C(O)c1ccc2[nH]c3c(c2c1)CSCC3,> 4 mM (inactive)
20,O=C1C=CC(=O)N1c1ccc(N2CCOCC2)cc1,> 4 mM (inactive)
21,O=C(CC1NC(=O)NC1=O)Nc1ccccc1 (stereo unspecified),> 4 mM (inactive)

row,SMILES,Kd
1,COCc1c(CN)cnc(C)c1N,> 4 mM (inactive)
2,O=C(O)c1sccc1-n1cccc1,> 4 mM (inactive)
3,CC(=O)N1CCN(C2CCSC2)CC1 (stereo unspecified),> 4 mM (inactive)
4,CC(=O)O[C@H]1CC[C@@]2(C)C(CC[C@]3(C)C2CC=C2C4CC(C)(C)CC[C@]4(C)CC[C@]23C)C1(C)C (stereo partly specified),> 4 mM (inactive)
5,Nc1nncn1C(=O)c1c(Cl)cccc1Cl,> 4 mM (inactive)
6,COc1ccc(-c2oc3c(CC=C(C)C)c(O[C@@H]4O[C@H](CO)[C@@H](O)[C@H](O)[C@H]4O)cc(O)c3c(=O)c2O[C@@H]2O[C@@H](C)[C@H](O)[C@@H](O)[C@H]2O)cc1,> 4 mM (inactive)
7,CNC(=O)COc1cccc2c1CCNC2=O,> 4 mM (inactive)
8,C=C1C2CC[C@H]3[C@]4(C)C[C@H](OC5OC(CO)C(OS(=O)(=O)O)C(OS(=O)(=O)O)C5OC(=O)CC(C)C)C[C@@H](C(=O)O)[C@H]4CC[C@]3(C2)[C@H]1O (stereo partly specified),> 4 mM (inactive)
9,Nc1ccc(Cc2ccc(N)cc2)cc1,> 4 mM (inactive)
10,Cc1nc(-c2ccccc2)sc1CN,> 4 mM (inactive)
11,Cc1cc(C(=O)N2CCN(c3ccccn3)CC2)no1,> 4 mM (inactive)
12,O=C(NC(=O)N1CCOCC1)c1ccccc1,> 4 mM (inactive)
13,COC(=O)c1ccc2nc[nH]c2c1,> 4 mM (inactive)
14,Cc1ccccc1-n1c(N)cc(=O)[nH]c1=S,> 4 mM (inactive)
15,O=c1[nH]cc(CN2CCOCC2)c(=O)[nH]1,> 4 mM (inactive)
16,O=C(CC1NCCNC1=O)Nc1ccccc1 (stereo unspecified),> 4 mM (inactive)
17,O=C1C2=C(SCCS2)C(=O)N1CCCO,> 4 mM (inactive)
18,COCCn1c(N)nc2c1c(=O)[nH]c(=O)n2C,> 4 mM (inactive)

# From PubChem BioAssay AID1033 (Sanford-Burnham Center for Chemical Genomics, 2008)
